Test results as given in PubChem BioAssay AID1963856 (Molecular Pharmacology Branch, DTP, NCI, 2024).

Tested on: LG0567-F671-PDC KRAS tumor spheroid viability
Test: Anticancer human tumor LG0567-F671-PDC patient-derived lung adenocarcinoma cell line growth inhibition [KRAS2]
Conditions: spheroids with HUVEC and MSC; for IC50: curve of first compound; for viability, T/C: stronger effect = lower value
Description: Multicellular complex tumor spheroid response to RAS pathway inhibitors in combination with a targeted agents in patient-derived cell lines with oncogenic KRAS variants from multiple cancer types
A high-throughput screen of multi-cell type tumor spheroids was designed to identify active combinations of targeted small molecules and KRAS pathway inhibitors. Complex spheroids include a stromal component modeled by human endothelial cells (HUVEC) and fibroblasts modeled by human mesenchymal stem cells (MSCs). The concentration ranges selected for each drug and investigational agent were based upon clinically achievable concentrations if the clinical Cmax of the agent was known.
Compounds. The drugs and investigational agents: BI-3406 (NSC825286), BAY-293 (NSC824723), batoprotafib (TNO155; NSC825523), sotorasib (AMG 510; NSC818433), MRTX1257 (NSC819558), elimusertib (BAY 1895344; NSC800525), molibresib (GSK525762; NSC774829), temuterkib (LY3214996; NSC803410), venetoclax (NSC766270), alisertib (NSC759677), olaparib (NSC753686), talazoparib (NSC767125), erdafitinib (NSC781556), ipatasertib (NSC767898), cabozantinib (NSC761068), nintedanib (NSC756659), abemaciclib (NSC768073), docetaxel (NSC628503), trametinib (NSC758246), and sapanisertib (NSC764658) were obtained from the National Cancer Institute (NCI) Developmental Therapeutics Program Chemical Repository. The FDA-approved anticancer drug set is available from the Developmental Therapeutics Program. […] The stock solutions were prepared in dimethyl sulfoxide (DMSO, Sigma-Aldrich, St. Louis, MO, cat. D2650) at 800-fold the tested concentration and stored at -70 degrees C prior to their use. All drugs and investigational agents were tested over a range starting from a high concentration at or near the clinical Cmax and decreasing in half-log increments. If the clinical Cmax for an agent had not been determined, the highest concentration tested was 10 microM.
Cell Culture. All cells were maintained in an incubator at 37 degrees C and 5% CO2 with 95% humidity. The PDC lines were cultured according to standard operating procedures established by the NCI PDMR (https://pdmr.cancer.gov/sops/default.htm). Briefly, all PDCs were thawed and cultured in Matrigel-coated flasks prepared with a working solution of 1X Ham's F-12 nutrient mix, without supplementation (Invitrogen, Waltham, MA, cat. 11765054), 100 U/mL penicillin-streptomycin (Invitrogen, cat. 15140122), and 2.5% Matrigel (Corning Inc., Corning, NY, cat. 354248) for the first three passages. All PDCs were cultured in complete DMEM/F-12 media containing advanced DMEM/F-12 (Invitrogen, cat. 12634028), 4.9% defined fetal bovine serum, heat inactivated (HyClone Laboratories Inc., Logan, UT, cat. SH30070.03HI), 389 ng/mL hydrocortisone (Sigma-Aldrich, cat. H4001), 9.7 ng/mL human EGF recombinant protein (Invitrogen, cat. PHG0313), 23.4 microg/mL adenine (Sigma-Aldrich, cat. A2786), 97.3 U/mL penicillin-streptomycin (Invitrogen, cat. 15140122), 1.9 mM L-glutamine (Invitrogen, cat. 25030081), and 9.7 microM Y-27632 dihydrochloride (Tocris Bioscience, Bristol, United Kingdom, cat. 1254). The PDCs were cultured in complete DMEM/F12 media without 9.7 microM Y-27632 dihydrochloride for at least two passages prior to the screen. The established cell line HOP-62 was cultured in RPMI 1640 medium, HEPES (Invitrogen, cat. 22400105) with 10% defined fetal bovine serum (HyClone Laboratories Inc., cat. SH30070.03) and 2 mM L-glutamine (Invitrogen, cat. 25030081). The pooled donor HUVEC were cultured in endothelial cell growth medium 2 (PromoCell, Heidelberg, Germany, cat. C-22011) and the hMSC were cultured in mesenchymal stem cell growth medium 2 (PromoCell, cat. C-28009). For all experiments, HUVEC and hMSC were used at passages </=5, while the malignant cell lines were used at passages </=15. […]
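Note: drug exposure lasted seven days after spheroids formed for three days.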
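Throughout, for viability, T/C: 100% = DMSO vehicle control viability.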

CN(C)C/C=C/C(=O)Nc1cc2c(Nc3ccc(F)c(Cl)c3)ncnc2cc1O[C@H]1CCOC1 + C=CC(=O)N1CCN(c2nc(=O)n(-c3c(C)ccnc3C(C)C)c3nc(-c4c(O)cccc4F)c(F)cc23)C(C)C1
IC50 (second compound 0.1 µM): < 0.316 nM | IC50 (second compound 0.316 µM): < 0.316 nM | IC50 (second compound 1 µM): < 0.316 nM | IC50 (second compound 3.16 µM): < 0.316 nM | IC50 (second compound 10 µM): < 0.316 nM | viability, T/C (second compound 0.1 µM, first compound 0.000316 µM): 32.6% | viability, T/C (second compound 0.1 µM, first compound 0.001 µM): 26.2% | viability, T/C (second compound 0.1 µM, first compound 0.00316 µM): 23.1% | viability, T/C (second compound 0.1 µM, first compound 0.01 µM): 18.4% | viability, T/C (second compound 0.1 µM, first compound 0.0316 µM): 15.4% | viability, T/C (second compound 0.1 µM, first compound 0.1 µM): 26.1% | viability, T/C (second compound 0.316 µM, first compound 0.000316 µM): 28.6% | viability, T/C (second compound 0.316 µM, first compound 0.001 µM): 28.2% | viability, T/C (second compound 0.316 µM, first compound 0.00316 µM): 26.1% | viability, T/C (second compound 0.316 µM, first compound 0.01 µM): 21.6% | viability, T/C (second compound 0.316 µM, first compound 0.0316 µM): 24.1% | viability, T/C (second compound 0.316 µM, first compound 0.1 µM): 28.4% | viability, T/C (second compound 1 µM, first compound 0.000316 µM): 25.1% | viability, T/C (second compound 1 µM, first compound 0.001 µM): 24.7% | viability, T/C (second compound 1 µM, first compound 0.00316 µM): 24.5% | viability, T/C (second compound 1 µM, first compound 0.01 µM): 26.2% | viability, T/C (second compound 1 µM, first compound 0.0316 µM): 27.5% | viability, T/C (second compound 1 µM, first compound 0.1 µM): 24.4% | viability, T/C (second compound 3.16 µM, first compound 0.000316 µM): 18.6% | viability, T/C (second compound 3.16 µM, first compound 0.001 µM): 22.9% | viability, T/C (second compound 3.16 µM, first compound 0.00316 µM): 26.1% | viability, T/C (second compound 3.16 µM, first compound 0.01 µM): 14.5% | viability, T/C (second compound 3.16 µM, first compound 0.0316 µM): 21.8% | viability, T/C (second compound 3.16 µM, first compound 0.1 µM): 22.5% | viability, T/C (second compound 10 µM, first compound 0.000316 µM): 23% | viability, T/C (second compound 10 µM, first compound 0.001 µM): 22.9% | viability, T/C (second compound 10 µM, first compound 0.00316 µM): 15.8% | viability, T/C (second compound 10 µM, first compound 0.01 µM): 13.1% | viability, T/C (second compound 10 µM, first compound 0.0316 µM): 18.5% | viability, T/C (second compound 10 µM, first compound 0.1 µM): 13.3%
